In PubChem BioAssay (NCI) one finds TGI data, which are given here for nine molecules.

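Grown in 96-well plates, cells were treated for 48 hours with each compound at five concentrations. Insufficient inhibition: endpoint recorded as highest concentration tested. TGI: total growth inhibition.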

Among the test systems are M19-MEL melanoma; DLD-1 colon; P388/ADR leukemia; HOP-18 NSCLC; XF 498 CNS; P388 leukemia; SN12K1 renal; LXFL 529 NSCLC; RXF-631 renal.
Assay in all cases: NCI tumour cell line growth inhibition, 48 h

For `CC1=C2C(=CO[C@H](C)[C@H]2C)C(=O)C(C(=O)O)=C1O`, the TGI in the assay on M19-MEL melanoma worked out at 79.1 µM; with DLD-1 colon it was 66.9 µM; in the assay with P388/ADR leukemia, 67.7 µM; in the assay on HOP-18 NSCLC, 57.9 µM; with XF 498 CNS, 13.6 µM; in the assay with P388 leukemia, 500 µM. In the assay on SN12K1 renal, this molecule had a TGI of 42 µM.

For `Cc1cc(=O)[nH]c(NN2C(Cl)C(=O)C2c2ccc([N+](=O)[O-])cc2)n1` (configuration not stated), the TGI came to 17.3 µM in the assay on M19-MEL melanoma, 23.9 µM in the assay on HOP-18 NSCLC and 20.8 µM in the assay on LXFL 529 NSCLC.

As for `O=C(O)c1ccccc1N=Cc1ccc(N(CCCl)CCCl)cc1`, the TGI in the assay with M19-MEL melanoma, in the assay with DLD-1 colon, in the assay on P388/ADR leukemia, with HOP-18 NSCLC, in the assay on P388 leukemia and in the assay on SN12K1 renal was more than 100 µM throughout.

With `CC1(C)CC2(CC(C)(C)N1O)NC(=O)OC2=O`, the TGI with M19-MEL melanoma, in the assay on DLD-1 colon, with P388/ADR leukemia, in the assay on HOP-18 NSCLC, in the assay on XF 498 CNS and with P388 leukemia was more than 100 µM each time. Also, the TGI in the assay with SN12K1 renal was more than 100 µM.

Regarding `COc1cccc(N[C@@H]2c3cc4c(cc3C(c3cc(OC)c(O)c(OC)c3)[C@H]3C(=O)OCC32)OCO4)c1` (some centres not stated), the TGI in the assay on M19-MEL melanoma was more than 59.7 µM; in the assay with DLD-1 colon it was 8.35 µM; in the assay with P388/ADR leukemia, 0.984 µM; in the assay with HOP-18 NSCLC it was 21.7 µM; in the assay on XF 498 CNS it was 23.9 µM; in the assay with P388 leukemia, 0.385 µM. Further, the TGI with SN12K1 renal stood at 9.55 µM.

For `O=C1c2c(O)cccc2-c2nn(CCNCCO)c3ccc(NCCNCCO)c1c23`, the TGI in the assay with M19-MEL melanoma is 1.15 µM; in the assay with DLD-1 colon, more than 41.3 µM; in the assay with RXF-631 renal, 5.54 µM; in the assay on HOP-18 NSCLC it was 5.41 µM; in the assay with XF 498 CNS, 0.379 µM; in the assay on LXFL 529 NSCLC, 1.14 µM.

Take `CN(C)CCCNc1ccc2nnn3c4ccc(O)cc4c(=O)c1c23`: the TGI in the assay with M19-MEL melanoma came out at 25.6 µM; in the assay with DLD-1 colon it was 18.1 µM; with HOP-18 NSCLC, 29.1 µM; with LXFL 529 NSCLC it was 20.1 µM.

As for `Cc1ccccc1-c1nc2c(C(=O)NCCN(C)C)cccc2[nH]1`, the TGI in the assay with DLD-1 colon is more than 100 µM; with P388/ADR leukemia it was more than 100 µM; in the assay on HOP-18 NSCLC, 54.8 µM; with XF 498 CNS, more than 100 µM; in the assay with P388 leukemia, 44.3 µM; in the assay on SN12K1 renal, more than 100 µM.

Turning to `CN=C(/N=c1\ssc(=NC)n1C)N(C)C`, the TGI with M19-MEL melanoma, in the assay with DLD-1 colon, with RXF-631 renal, with HOP-18 NSCLC, with XF 498 CNS and in the assay on LXFL 529 NSCLC was more than 100 µM throughout.
